According to patent US10654834B2 (Venenum Biodesign, LLC, priority 2016, dated 2020):

Legend:
[1] = molecular target: T1, human TGR5 receptor (Homo sapiens, UniProt Q8TDU6); test: Human TGR5 cAMP production assay (hTGR5-CHO cells, DiscoveRx cAMP XS+ kit); assay type: cell-based; details: luminescent cAMP assay, read-out: Human TGR5 Lum. cAMP Activity (EC50)
T1 construct: host or cells: CHO-K1 (hTGR5-CHO)
T1 sequence (Q8TDU6 1-330): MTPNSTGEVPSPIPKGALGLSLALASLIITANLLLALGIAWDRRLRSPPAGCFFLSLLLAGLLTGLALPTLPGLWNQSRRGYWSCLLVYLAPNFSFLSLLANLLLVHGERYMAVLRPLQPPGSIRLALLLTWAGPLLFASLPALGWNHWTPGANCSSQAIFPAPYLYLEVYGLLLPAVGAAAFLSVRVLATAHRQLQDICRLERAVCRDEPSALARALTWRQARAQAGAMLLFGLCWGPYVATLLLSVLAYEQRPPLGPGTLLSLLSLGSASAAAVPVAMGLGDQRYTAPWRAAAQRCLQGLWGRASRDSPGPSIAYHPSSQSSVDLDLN
Method in brief: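 EC50 values come from luminescent enzyme-complementation cAMP detection, read after overnight incubation. Beforehand, hTGR5-expressing CHO-K1 cells with IBMX and anti-cAMP antibody were exposed 1 h at room temperature to serially diluted (half-log) compounds.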

[2] = molecular target: T2, mouse TGR5 receptor (Mus musculus, UniProt Q80SS6); test: Mouse TGR5 HTRF cAMP production assay (HEK293-EBNA cells, Cisbio cAMP HiRange kit); assay type: cell-based; details: HEK293-EBNA cells overexpressing mouse TGR5, HTRF cAMP assay
T2 construct: host or cells: HEK293-EBNA (293 c18, ATCC CRL10852)
T2 sequence (Q80SS6 1-329): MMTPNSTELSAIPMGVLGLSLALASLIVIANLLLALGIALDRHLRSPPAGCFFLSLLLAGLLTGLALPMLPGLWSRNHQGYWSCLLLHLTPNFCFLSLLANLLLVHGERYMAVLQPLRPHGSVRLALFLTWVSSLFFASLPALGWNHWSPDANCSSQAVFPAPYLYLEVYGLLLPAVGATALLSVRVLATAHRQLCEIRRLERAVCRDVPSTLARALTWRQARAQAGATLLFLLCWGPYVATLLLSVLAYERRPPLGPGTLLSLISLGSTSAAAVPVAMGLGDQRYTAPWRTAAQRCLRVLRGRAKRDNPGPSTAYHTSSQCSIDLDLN
Method in brief: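 cAMP accumulation was read by competitive HTRF after 1 h room-temperature compound treatment, with a further 1 h conjugate incubation. Cells were mouse TGR5-overexpressing HEK293-EBNA in serum-free DMEM plus 500 μM IBMX. Compounds ran as 12-point half-log series in duplicate, and EC50 values were reported.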

Compound: N#Cc1ccc(CCNC(=O)[C@@H]2CCN2c2cc(N3CCC(CCNC(=N)N)CC3)nc(C(F)(F)F)n2)cc1 [Compound 285, (S)-N-(4-cyanophenethyl)-1-(6-(4-(2-guanidinoethyl)piperidin-1-yl)-2-(trifluoromethyl)pyrimidin-4-yl)azetidine-2-carboxamide]
- EC50 [1]: < 100 nM
- EC50 [2]: < 100 nM

Compound: N#Cc1ccc(CCNC(=O)[C@@H]2CCN2c2cc(N3CCC(CCNC(=O)NCCNC(=N)N)CC3)nc(C(F)(F)F)n2)cc1 [Compound 286, (S)-N-(4-cyanophenethyl)-1-(6-(4-(2-(3-(2-guanidinoethyl)-ureido)ethyl)piperidin-1-yl)-2-(trifluoromethyl)pyrimidin-4-yl)azetidine-2-carboxamide]
- EC50 [1]: < 100 nM
- EC50 [2]: < 100 nM

Compound: N#Cc1ccc(CCNC(=O)[C@@H]2CCCN2c2cc(N3CCC(CCCC(=O)NCCC(=O)O)CC3)nc(C(F)(F)F)n2)cc1 [Compound 104, (S)-3-(4-(1-(6-(2-((4-cyanophenethyl)carbamoyl)pyrrolidin-1-yl)-2-(trifluoromethyl)pyrimidin-4-yl)-piperidin-4-yl)butanamido)-propanoic acid]
- EC50 [1]: < 100 nM
- EC50 [2]: < 100 nM

Compound: N#Cc1ccc(CCNC(=O)[C@@H]2CCN2c2cc(N3CCC(CCNS(=O)(=O)CCNC(=O)[C@@H](N)CS(=O)(=O)O)CC3)nc(C(F)(F)F)n2)cc1 [Compound 363, (R)-2-amino-3-((2-(N-(2-(1-(6-((S)-2-((4-cyanophenethyl)carbamoyl)azetidin-1-yl)-2-(trifluoromethyl)pyrimidin-4-yl)piperidin-4-yl)ethyl)sulfamoyl)ethyl)amino)-3-oxopropane-1-sulfonic acid]
- EC50 [1]: < 100 nM
- EC50 [2]: < 100 nM

Compound: N#Cc1ccc(CCNC(=O)[C@@H]2CCCN2c2cc(N3CCC(CCNc4c(NCCS(=O)(=O)O)c(=O)c4=O)CC3)nc(C(F)(F)F)n2)cc1 [Compound 367, (S)-2-((2-((2-(1-(6-(2-((4-cyanophenethyl)carbamoyl)pyrrolidin-1-yl)-2-(trifluoromethyl)pyrimidin-4-yl)piperidin-4-yl)ethyl)amino)-3,4-dioxocyclobut-1-en-1-yl)amino)ethanesulfonic acid]
- EC50 [1]: < 100 nM
- EC50 [2]: < 100 nM

Compound: N#Cc1ccc(CCNC(=O)[C@@H]2CCCN2c2cc(N3CCC(CCCNC(=O)NCCS(N)(=O)=O)CC3)nc(C(F)(F)F)n2)cc1 [Compound 120, (S)-N-(4-cyanophenethyl)-1-(6-(4-(3-(3-(2-sulfamoylethyl)ureido)propyl)piperidin-1-yl)-2-(trifluoromethyl)pyrimidin-4-yl)pyrrolidine-2-carboxamide]
- EC50 [1]: < 100 nM
- EC50 [2]: < 100 nM

Compound: O=C(O)CC[C@@H](NC(=O)CCCC1CCN(c2cc(N3CC[C@H]3C(=O)NCCc3ccc(C(F)(F)F)cc3)nc(C(F)(F)F)n2)CC1)C(=O)O [Compound 294, (R)-2-(4-(1-(2-(trifluoromethyl)-6-((S)-2-((4-(trifluoromethyl)-phenethyl)carbamoyl)azetidin-1-yl)pyrimidin-4-yl)piperidin-4-yl)butanamido)pentanedioic acid]
- EC50 [1]: < 100 nM
- EC50 [2]: < 100 nM

Compound: CS(=O)(=O)NCCOCCNC(=O)NCCC1CCN(c2cc(N3CC[C@H]3C(=O)NCCc3ccc(C#N)cc3)nc(C(F)(F)F)n2)CC1 [Compound 292, (S)-N-(4-cyanophenethyl)-1-(6-(4-(2-(3-(2-(2-(methylsulfonylamino)-ethoxy)ethyl)ureido)ethyl)piperidin-1-yl)-2-(trifluoromethyl)pyrimidin-4-yl)azetidine-2-carboxamide]
- EC50 [1]: < 100 nM
- EC50 [2]: < 100 nM

Compound: N#Cc1ccc(CCNC(=O)[C@@H]2CCCN2c2cc(N3CCC(CCNS(=O)(=O)CCNC(=N)N)CC3)nc(C(F)(F)F)n2)cc1 [Compound 130, (S)-N-(4-cyanophenethyl)-1-(6-(4-(2-(2-guanidinoethylsulfonamido)ethyl)piperidin-1-yl)-2-(trifluoromethyl)pyrimidin-4-yl)pyrrolidine-2-carboxamide]
- EC50 [1]: < 100 nM
- EC50 [2]: < 100 nM

Compound: O=C(O)CCC1CCN(c2cc(N3CC[C@H]3C(=O)NCCc3ccc(C(F)(F)F)cc3)nc(C(F)(F)F)n2)CC1 [Compound 232, (S)-3-(1-(2-(trifluoromethyl)-6-(2-((4-(trifluoromethyl)phenethyl)carbamoyl)azetidin-1-yl)pyrimidin-4-yl)piperidin-4-yl)propanoic acid]
- EC50 [1]: < 100 nM
- EC50 [2]: < 100 nM

Compound: N#Cc1ccc(CCNC(=O)[C@@H]2CCN2c2cc(N3CCC(CCCC(=O)O)CC3)nc(C(F)(F)F)n2)cc1 [Compound 231, (S)-4-(1-(6-(2-((4-cyanophenethyl)carbamoyl)azetidin-1-yl)-2-(trifluoromethyl)pyrimidin-4-yl)piperidin-4-yl)butanoic acid]
- EC50 [1]: < 100 nM
- EC50 [2]: < 100 nM

Compound: O=C(O)CCCC1CCN(c2cc(N3CCC[C@H]3C(=O)NCCc3ccc(C(F)(F)F)cc3)nc(C(F)(F)F)n2)CC1 [Compound 9]
- EC50 [1]: < 100 nM
- EC50 [2]: < 100 nM

Compound: N#Cc1ccc(CCNC(=O)[C@@H]2CCCN2c2cc(N3CCC(CCNC(=O)NCCS(=O)(=O)NCC(=O)O)CC3)nc(C(F)(F)F)n2)cc1 [Compound 107]
- EC50 [1]: < 100 nM
- EC50 [2]: < 100 nM

Compound: N#Cc1ccc(CCNC(=O)[C@@H]2CCCN2c2cc(N3CCC(CCCC(=O)NCCCC[C@H](NC(=N)N)C(=O)O)CC3)nc(C(F)(F)F)n2)cc1 [Compound 129, (S)-6-(4-(1-(6-((S)-2-((4-cyanophenethyl)carbamoyl)pyrrolidin-1-yl)-2-(trifluoromethyl)pyrimidin-4-yl)piperidin-4-yl)butanamido)-2-guanidinohexanoic acid]
- EC50 [1]: < 100 nM
- EC50 [2]: < 100 nM

Compound: N#Cc1ccc(CCNC(=O)[C@@H]2CCN2c2cc(N3CCC(CCNC(=O)NCCOCCNC(=O)CS(=O)(=O)O)CC3)nc(C(F)(F)F)n2)cc1 [Compound 356, (S)-1-(1-(6-(2-((4-cyanophenethyl)carbamoyl)azetidin-1-yl)-2-(trifluoromethyl)pyrimidin-4-yl)piperidin-4-yl)-4,12-dioxo-8-oxa-3,5,11-triazatridecane-13-sulfonic acid]
- EC50 [1]: < 100 nM
- EC50 [2]: < 100 nM

Compound: COCC1CCN(c2cc(N3CCC[C@H]3C(=O)NCCc3ccc(C#N)cc3)nc(C(F)(F)F)n2)CC1 [Compound 24]
- EC50 [1]: < 100 nM

Compound: N#Cc1ccc(CCNC(=O)[C@@H]2CCCN2c2cc(N3CCC(CCO)CC3)nc(C(F)(F)F)n2)cc1 [Compound 22]
- EC50 [1]: < 100 nM

Compound: N#Cc1ccc(CCNC(=O)[C@@H]2CCCN(c3cc(N4CCC(CO)CC4)nc(C(F)(F)F)n3)C2)cc1 [Compound 308, (R)—N-(4-cyanophenethyl)-1-(6-(4-(hydroxymethyl)piperidin-1-yl)-2-(trifluoromethyl)pyrimidin-4-yl)piperidine-3-carboxamide]
- EC50 [1]: < 100 nM

Compound: N#Cc1ccc(CCNC(=O)[C@@H]2CCN2c2cc(N3CCC(CO)CC3)nc(C(F)(F)F)n2)cc1 [Compound 219, (S)—N-(4-cyanophenethyl)-1-(6-(4-(hydroxymethyl)piperidin-1-yl)-2-(trifluoromethyl)pyrimidin-4-yl)azetidine-2-carboxamide]
- EC50 [1]: < 100 nM

Compound: N#Cc1ccc(CCNC(=O)[C@@H]2CCCN2c2cc(N3CCC(CCN)CC3)nc(C(F)(F)F)n2)cc1 [Compound 50, (S)-1-(6-(4-(2-aminoethyl)piperidin-1-yl)-2-(trifluoromethyl)pyrimidin-4-yl)-N-(4-cyanophenethyl)pyrrolidine-2-carboxamide]
- EC50 [1]: < 100 nM
